Reference: patent US5980939A, “Cyclosporin-containing pharmaceutical composition” (Chong Kun Dang Corp., priority 1996, dated 1999)

Columns and labels:
[1] = Experiment 3: permeability of hydrophilic cosurfactant to the gelatin shell, content in soft capsule in course of time; type: physicochemical; conditions: for Change of the content of hydrophilic cosurfactant: solvent:Cremophor RH40 3:7 in soft capsule
Source text: Propylene glycol which contains --OH group in its molecular structure and therefore has high hygroscopic and hydrophilic properties is distributed in the capsule shell according to the movement of water present in the contents and gelatin capsule during encapsulation and drying procedures and therefore, is permeated to the capsule shell in course of time. According to this, since the constitutional ratio of the contents is greately varied at the early stage, of manufacturing procedures of the capsule preparation, the stability of the preparation cannot be ensured and further the reliable therapeutic effect cannot be obtained. […] Hereinafter, the permeability to the gelatin shell of the hydrophilic cosurfactant used in the soft capsule according to the present invention was determined and compared with the shell permeability of propylene glycol, transcutol, glycofurol or dimethylisosorbide used as the hydrophilic cosurfactant in the soft capsule according to the prior art. The content of each solvent in each soft capsule preparation was analyzed by gas chromatography and HPLC. […] At regular intervals, the constant amount of the sample was taken and then analyzed.
Column: Ultra 2; Column temperature: 23° C.; Detector: FID; Detector temperature: 270° C.; Injection temperature: 275° C.; Carrier gas: He; Injection volume: 5 μl; Internal standard: octyl alcohol
Column: 10% PEG 20M; Column temperature: 160° C.; Detector: FID; Injection temperature: 200° C.; Carrier gas: N2; Injection volume: 1 μl; Internal standard: pentadecanoic acid methyl ester
Column: Ultra 2; Column temperature: 230° C.; Detector: FID; Detector temperature: 270° C.; Injection temperature: 270° C.; Carrier gas: He; Injection volume: 5 μl; Internal standard: pentadecanoic acid methyl ester

[2] = test system: rat; conditions: per oral; cited from earlier work
[3] = species and route not given; cited from earlier work
[4] = Experiment 1: reactivity of hydrophilic cosurfactant with the gelatin shell by thermoanalyzer (DSC/DDSC); type: physicochemical; conditions: soft gelatin capsule filled with solvent, stored at room temperature, 3 months
Method: Test for the reactivity of the hydrophilic cosurfactant according to the present invention with the gelatin shell in comparison to the reactivity of the solvents used in the prior art using a thermoanalyzer: The reactivities of the hydrophilic cosurfactant used according to the present invention and propylene glycol used as the hydrophilic cosurfactant in the prior preparation with the gelatin shell were determined using a thermoanalyzer. Each of the hydrophilic cosurfactants and mineral oil as the control solvent was filled in the soft gelatin capsule. The filled capsule was stored at room temperature. At regular intervals, the capsules were cut open by a sharp open blade, and the contents were removed by washing with ether and then about 20 mg of gelatin shell was accurately weighed and analyzed. The programed heating rate was 10° C./minute under nitrogen purge from 25 °C. to 300° C.

[5] = test system: mouse; conditions: intravenous injection; cited from earlier work

## CCOCCOCCO [Transcutol, diethyleneglycol monoethyl ether]
[1]; day 0
  Change of the content of hydrophilic cosurfactant: 30.1 wt %
[1]; day 5
  Change of the content of hydrophilic cosurfactant: 22.1 wt %
[1]; day 15
  Change of the content of hydrophilic cosurfactant: 23.1 wt %
[1]; day 30
  Change of the content of hydrophilic cosurfactant: 21.9 wt %
[1]; day 60
  Change of the content of hydrophilic cosurfactant: 22.1 wt %
[1]; day 90
  Change of the content of hydrophilic cosurfactant: 21.7 wt %
[1]; day 120
  Change of the content of hydrophilic cosurfactant: 20.3 wt %

## CC(C)=O [acetone]
[2]
  LD50: 10.7 mL/kg

## CO[C@H]1CO[C@H]2[C@@H]1OC[C@H]2OC [Dimethylisosorbide, 1,4:3,6-dianhydro-2,5-dimethyl-D-glucitol]
[1]; day 0
  Change of the content of hydrophilic cosurfactant: 30.0 wt %
[1]; day 5
  Change of the content of hydrophilic cosurfactant: 28.2 wt %
[1]; day 15
  Change of the content of hydrophilic cosurfactant: 29.1 wt %
[1]; day 30
  Change of the content of hydrophilic cosurfactant: 28.7 wt %
[1]; day 60
  Change of the content of hydrophilic cosurfactant: 28.0 wt %
[1]; day 90
  Change of the content of hydrophilic cosurfactant: 26.6 wt %
[1]; day 120
  Change of the content of hydrophilic cosurfactant: 25.8 wt %
[2]
  LD50: 5.63 mL/kg

## CC1COC(=O)O1 (racemic) [Propylene carbonate, (±)-4-methyl-1,3-dioxolan-2-one]
[1]
  stability of the cosurfactant content in soft capsule (in words): at least comparable stability to dimethylisosorbide and is more stable than propylene glycol, transcutol and glycofurol
[1]; day 0
  Change of the content of hydrophilic cosurfactant: 30.1 wt %
[1]; day 5
  Change of the content of hydrophilic cosurfactant: 29.8 wt %
[1]; day 15
  Change of the content of hydrophilic cosurfactant: 28.6 wt %
[1]; day 30
  Change of the content of hydrophilic cosurfactant: 28.4 wt %
[1]; day 60
  Change of the content of hydrophilic cosurfactant: 28.7 wt %
[1]; day 90
  Change of the content of hydrophilic cosurfactant: 27.4 wt %
[1]; day 120
  Change of the content of hydrophilic cosurfactant: 28.0 wt %
[3]
  LD50: 29000 mg/kg

## CC(C)O [isopropanol]
[2]
  LD50: 5800 mg/kg

## CC#N [acetonitrile]
[2]
  LD50: 3800 mg/kg

## c1ccccc1 [benzene]
[2]
  LD50: 3.8 mL/kg

## CC(O)CO (stereo not drawn) [Propylene glycol, 1,2-propylene glycol]
[4]
  DSC/DDSC pattern of gelatin shell versus shell of capsule filled with mineral oil: shows a new peak
[1]; day 0
  Change of the content of hydrophilic cosurfactant: 29.9 wt %
[1]; day 5
  Change of the content of hydrophilic cosurfactant: 21.9 wt %
[1]; day 15
  Change of the content of hydrophilic cosurfactant: 22.8 wt %
[1]; day 30
  Change of the content of hydrophilic cosurfactant: 21.0 wt %
[1]; day 60
  Change of the content of hydrophilic cosurfactant: 22.4 wt %
[1]; day 90
  Change of the content of hydrophilic cosurfactant: 21.5 wt %
[1]; day 120
  Change of the content of hydrophilic cosurfactant: 19.5 wt %
[2]
  LD50: 21000 to 33700 mg/kg

## tetrahydrofurfurylalcohol polyethylene glycol [Glycofurol]
[1]; day 0
  Change of the content of hydrophilic cosurfactant: 30.0 wt %
[1]; day 5
  Change of the content of hydrophilic cosurfactant: 24.4 wt %
[1]; day 15
  Change of the content of hydrophilic cosurfactant: 21.0 wt %
[1]; day 30
  Change of the content of hydrophilic cosurfactant: 23.5 wt %
[1]; day 60
  Change of the content of hydrophilic cosurfactant: 21.0 wt %
[1]; day 90
  Change of the content of hydrophilic cosurfactant: 20.7 wt %
[1]; day 120
  Change of the content of hydrophilic cosurfactant: 20.4 wt %
[5]
  LD50: 3.5 mL/kg
